Where two headings read alike, the source gives them in different places.
Assays:
[1] = target: bestatin-sensitive/amastatin-insensitive membrane dipeptidase; assay: Specificity of apstatin: bestatin-sensitive/amastatin-insensitive membrane dipeptidase; type: biochemical; conditions: bovine lung microsomes; Arg-Trp, pH 6.8, FLUO
Protocol: (§1) Specificity of Apstatin--Apstatin was assayed for its ability to inhibit several other peptidases. […] Unless otherwise indicated, the source of each enzyme activity was a detergent extract of bovine lung prepared as described in (12-13). Activities were determined by a modification of the fluorescent assay described above (indicated by "FLUO") or by HPLC separation and quantitation of reaction products using the method described in (12) (method "HPLC-1") or the method described below (method "HPLC-2"). […]

[2] = test system: blood pressure response to Bk; conditions: rat, cited from earlier work
[3] = target: prolyl oligopeptidase (Ovis aries, UniProt A0ACI6PCU6); assay: Specificity of apstatin: prolyl oligopeptidase; type: biochemical; conditions: purified, lamb kidney; Bk, pH 6.8, HPLC-1
Chain of prolyl oligopeptidase (A0ACI6PCU6 entry or part of it): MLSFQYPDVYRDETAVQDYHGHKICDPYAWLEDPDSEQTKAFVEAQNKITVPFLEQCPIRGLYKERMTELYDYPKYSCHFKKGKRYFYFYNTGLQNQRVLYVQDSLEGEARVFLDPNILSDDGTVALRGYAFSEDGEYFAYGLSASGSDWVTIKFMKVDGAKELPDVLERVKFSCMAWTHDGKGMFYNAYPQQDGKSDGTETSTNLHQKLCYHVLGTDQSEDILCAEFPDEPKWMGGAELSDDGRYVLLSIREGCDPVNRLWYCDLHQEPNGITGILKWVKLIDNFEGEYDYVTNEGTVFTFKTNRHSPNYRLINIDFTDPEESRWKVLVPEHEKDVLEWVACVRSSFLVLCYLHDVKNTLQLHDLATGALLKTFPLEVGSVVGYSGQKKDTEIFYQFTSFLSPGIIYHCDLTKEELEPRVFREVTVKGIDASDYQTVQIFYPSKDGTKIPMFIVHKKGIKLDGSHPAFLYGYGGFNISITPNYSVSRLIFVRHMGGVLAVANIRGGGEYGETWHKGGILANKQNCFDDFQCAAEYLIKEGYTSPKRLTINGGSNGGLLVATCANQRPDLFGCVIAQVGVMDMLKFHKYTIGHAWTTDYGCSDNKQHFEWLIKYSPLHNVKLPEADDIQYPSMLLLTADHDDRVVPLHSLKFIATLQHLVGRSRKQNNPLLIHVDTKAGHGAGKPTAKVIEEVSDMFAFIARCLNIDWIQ
Text: Enzymes--Membrane-bound aminopeptidase P was purified to homogeneity from bovine lung (14) and from rat lung. Partially purified membrane-bound aminopeptidase P from human lung was obtained by treatment of lung microsomes with phosphatidylinositol-specific phospholipase C (B. thuringiensis) (ICN, Costa Mesa, Calif.) followed by centrifugation as described previously (14). Membrane dipeptidase was purified from rat lung microsomes (manuscript in preparation). Recombinant E. coli aminopeptidase P (22) and purified lamb kidney prolyl oligopeptidase (23) were generally supplied by Dr. Tadashi Yoshimoto (Nagasaki University). Purified porcine kidney prolidase and purified porcine kidney aminopeptidase M was obtained from Sigma (St. Louis, Mo.).
as §1

[4] = target: T1, aminopeptidase M (EC 3.4.11.2) (Sus scrofa, UniProt P15145); assay: Specificity of apstatin: aminopeptidase M; type: biochemical; conditions: purified, porcine kidney; Ala-β-NA, pH 6.8, FLUO
T1 construct: Purified porcine kidney prolidase and purified porcine kidney aminopeptidase M was obtained from Sigma; purchased Sigma (St. Louis, Mo.); host or cells: porcine kidney
T1 sequence (P15145 1-963): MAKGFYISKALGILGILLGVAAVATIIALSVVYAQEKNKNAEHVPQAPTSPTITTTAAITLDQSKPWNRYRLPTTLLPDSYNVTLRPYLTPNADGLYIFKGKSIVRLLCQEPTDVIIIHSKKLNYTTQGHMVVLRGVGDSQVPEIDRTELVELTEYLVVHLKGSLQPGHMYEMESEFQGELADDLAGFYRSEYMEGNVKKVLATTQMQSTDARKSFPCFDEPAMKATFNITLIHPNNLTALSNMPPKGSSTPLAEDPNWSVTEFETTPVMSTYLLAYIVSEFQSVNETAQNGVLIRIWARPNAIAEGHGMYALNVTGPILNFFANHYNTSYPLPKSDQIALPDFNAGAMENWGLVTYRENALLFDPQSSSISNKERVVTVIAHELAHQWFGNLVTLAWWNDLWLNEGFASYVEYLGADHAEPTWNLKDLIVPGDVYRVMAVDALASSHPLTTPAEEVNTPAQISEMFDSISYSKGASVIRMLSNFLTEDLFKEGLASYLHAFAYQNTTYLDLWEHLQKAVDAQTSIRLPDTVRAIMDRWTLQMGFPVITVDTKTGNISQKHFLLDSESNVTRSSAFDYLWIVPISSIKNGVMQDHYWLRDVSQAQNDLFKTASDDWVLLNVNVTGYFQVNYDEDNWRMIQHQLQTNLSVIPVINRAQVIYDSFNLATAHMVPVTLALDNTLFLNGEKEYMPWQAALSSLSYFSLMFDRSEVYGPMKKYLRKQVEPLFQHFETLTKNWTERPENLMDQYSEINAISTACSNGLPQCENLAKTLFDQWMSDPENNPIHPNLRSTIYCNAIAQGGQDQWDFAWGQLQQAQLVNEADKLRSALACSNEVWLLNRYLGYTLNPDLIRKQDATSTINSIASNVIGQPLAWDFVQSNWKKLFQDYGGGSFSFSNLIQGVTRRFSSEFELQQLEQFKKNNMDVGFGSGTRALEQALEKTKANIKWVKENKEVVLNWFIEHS
Protocol: as §1

In the case of `C[C@H](NC(=O)[C@@H]1CCCN1C(=O)[C@@H]1CCCN1C(=O)[C@@H](O)[C@H](N)Cc1ccccc1)C(N)=O` [apstatin, N-[(2S, 3R)-3-amino-2-hydroxy-4-phenylbutanoyl]-L-prolyl-L-prolyl-Lalaninamide], the IC50 [1] is listed as > 800 µM, the “effect on blood pressure decrease caused by intravenous administration of Bk” value ([2]; apstatin alone) is listed as “significantly potentiate the magnitude as well as the duration” and the “effect on blood pressure decrease caused by intravenous administration of Bk” value ([2]; apstatin plus lisinopril versus lisinopril alone) is listed as “more effective in this regard than lisinopril alone”. The IC50 [3] was > 800 µM and the IC50 [4] was 600 µM.
